Laboratory results from ChEMBL document CHEMBL5724914, “Linking interpersonal differences in gut microbiota composition and drug biotransformation activity” (2024).
Where a SMILES comes first, the peptide text is derived from it. [ ]: non-standard residue; d: D form. pGlu = O=C1CC[C@@H](C(=O)O)N1; Thz = O=C(O)[C@@H]1CSCN1

Legend:
[1] = (§1) The drug is tested on Z-027 corresponding to metagenome with ENA study accession number: PRJEB37062 and ENA sample accession number: ERS12561826 for biotransformation under anaerobic condition. The drug concentrations were measured over 9 timepoints collected between 0 and 24 hours of incubation by liquid-chromatography-coupled mass spectrometry (LC–MS); conditions: 2 µM
[2] = (§2) The drug is tested on Z-024 corresponding to pig gut metagenome with ENA study accession number: PRJEB37062 and ENA sample accession number: ERS12561823 for biotransformation under anaerobic condition. The drug concentrations were measured over 9 timepoints collected between 0 and 24 hours of incubation by liquid-chromatography-coupled mass spectrometry (LC–MS); conditions: 2 µM
[3] = as §2, with “Z-019” for “Z-024”, “rat” for “pig”, “ERS12561818” for “ERS12561823”; conditions: 2 µM
[4] = as §2, with “Z-018” for “Z-024”, “ERS12561817” for “ERS12561823”; conditions: 2 µM
[5] = as §2, with “Z-017” for “Z-024”, “mouse” for “pig”, “ERS12561816” for “ERS12561823”; conditions: 2 µM
[6] = as §1, with “Z-012” for “Z-027”, “ERS12561812” for “ERS12561826”; conditions: 2 µM
[7] = as §2, with “Z-009” for “Z-024”, “ERS12561809” for “ERS12561823”; conditions: 2 µM
[8] = as §2, with “Z-003” for “Z-024”, “ERS12561803” for “ERS12561823”; conditions: 2 µM
[9] = as §2, with “WLS-370” for “Z-024”, “human” for “pig”, “ERS12561793” for “ERS12561823”; conditions: 2 µM
[10] = as §2, with “WLS-310” for “Z-024”, “human” for “pig”, “ERS12561785” for “ERS12561823”; conditions: 2 µM
[11] = as §2, with “WLS-240” for “Z-024”, “human” for “pig”, “ERS12561773” for “ERS12561823”; conditions: 2 µM
[12] = as §2, with “WLS-052” for “Z-024”, “human” for “pig”, “ERS12561747” for “ERS12561823”; conditions: 2 µM
[13] = as §2, with “WLS-010” for “Z-024”, “human” for “pig”, “ERS12561743” for “ERS12561823”; conditions: 2 µM
[14] = human gut metagenome, 24 h, 2 µM
[15] = human gut metagenome, 24 h, 2 µM; remark: listed apart in the source
[16] = human gut metagenome, 24 h, 2 µM; remark: listed apart in the source
[17] = human gut metagenome, 24 h, 2 µM; remark: listed apart in the source
[18] = human gut metagenome, 24 h, 2 µM; remark: listed apart in the source
[19] = human gut metagenome, 24 h, 2 µM; remark: listed apart in the source
[20] = as §1, with “Z-010” for “Z-027”, “ERS12561810” for “ERS12561826”; conditions: 2 µM
Also: call rule not given here.

CCC(COC(=O)c1cc(OC)c(OC)c(OC)c1)(c1ccccc1)N(C)C.O=C(O)/C=C\C(=O)O (configuration not stated)
Bacterial Biotransformation [1]: Compound NOT metabolized | Bacterial Biotransformation [2]: Compound NOT metabolized | Bacterial Biotransformation [3]: Compound NOT metabolized | Bacterial Biotransformation [4]: Compound metabolized | Bacterial Biotransformation [5]: Compound NOT metabolized | Bacterial Biotransformation [6]: Compound NOT metabolized | Bacterial Biotransformation [7]: Compound metabolized | Bacterial Biotransformation [8]: Compound NOT metabolized | Bacterial Biotransformation [9]: Compound NOT metabolized | Bacterial Biotransformation [10]: Compound metabolized | Bacterial Biotransformation [11]: Compound metabolized | Bacterial Biotransformation [12]: Compound NOT metabolized | Bacterial Biotransformation [13]: Compound NOT metabolized | Bacterial Biotransformation [14]: Compound metabolized | Bacterial Biotransformation [15]: Compound NOT metabolized | Bacterial Biotransformation [16]: Compound metabolized | Bacterial Biotransformation [17]: Compound metabolized | Bacterial Biotransformation [18]: Compound metabolized | Bacterial Biotransformation [19]: Compound metabolized

COc1ccc(CCN(C)CCCC(C#N)(c2ccc(OC)c(OC)c2)C(C)C)cc1OC (configuration not stated)
Bacterial Biotransformation [1]: Compound NOT metabolized | Bacterial Biotransformation [2]: Compound metabolized | Bacterial Biotransformation [3]: Compound NOT metabolized | Bacterial Biotransformation [4]: Compound metabolized | Bacterial Biotransformation [5]: Compound NOT metabolized | Bacterial Biotransformation [6]: Compound metabolized | Bacterial Biotransformation [7]: Compound metabolized | Bacterial Biotransformation [8]: Compound metabolized | Bacterial Biotransformation [9]: Compound metabolized | Bacterial Biotransformation [10]: Compound metabolized | Bacterial Biotransformation [11]: Compound metabolized | Bacterial Biotransformation [12]: Compound NOT metabolized | Bacterial Biotransformation [13]: Compound metabolized | Bacterial Biotransformation [14]: Compound metabolized | Bacterial Biotransformation [15]: Compound NOT metabolized | Bacterial Biotransformation [16]: Compound metabolized | Bacterial Biotransformation [17]: Compound metabolized | Bacterial Biotransformation [18]: Compound metabolized | Bacterial Biotransformation [19]: Compound metabolized

O=C(NCc1ccccc1)OCCO [BURAMATE]
Bacterial Biotransformation [1]: Compound NOT metabolized | Bacterial Biotransformation [2]: Compound NOT metabolized | Bacterial Biotransformation [3]: Compound NOT metabolized | Bacterial Biotransformation [4]: Compound NOT metabolized | Bacterial Biotransformation [6]: Compound NOT metabolized | Bacterial Biotransformation [20]: Compound NOT metabolized | Bacterial Biotransformation [7]: Compound NOT metabolized | Bacterial Biotransformation [8]: Compound NOT metabolized | Bacterial Biotransformation [9]: Compound NOT metabolized | Bacterial Biotransformation [10]: Compound NOT metabolized | Bacterial Biotransformation [11]: Compound NOT metabolized | Bacterial Biotransformation [12]: Compound NOT metabolized | Bacterial Biotransformation [13]: Compound NOT metabolized | Bacterial Biotransformation [14]: Compound NOT metabolized | Bacterial Biotransformation [15]: Compound NOT metabolized | Bacterial Biotransformation [16]: Compound NOT metabolized | Bacterial Biotransformation [17]: Compound NOT metabolized | Bacterial Biotransformation [18]: Compound NOT metabolized | Bacterial Biotransformation [19]: Compound NOT metabolized

C[C@@H]1C[C@H]2[C@@H]3CCC4=CC(=O)C=C[C@]4(C)[C@@]3(F)[C@@H](O)C[C@]2(C)[C@@]1(O)C(=O)CO [DEXAMETHASONE]
Bacterial Biotransformation [1]: Compound metabolized | Bacterial Biotransformation [2]: Compound metabolized | Bacterial Biotransformation [3]: Compound NOT metabolized | Bacterial Biotransformation [4]: Compound metabolized | Bacterial Biotransformation [5]: Compound NOT metabolized | Bacterial Biotransformation [6]: Compound metabolized | Bacterial Biotransformation [20]: Compound NOT metabolized | Bacterial Biotransformation [8]: Compound metabolized | Bacterial Biotransformation [10]: Compound metabolized | Bacterial Biotransformation [12]: Compound NOT metabolized | Bacterial Biotransformation [13]: Compound metabolized | Bacterial Biotransformation [14]: Compound NOT metabolized | Bacterial Biotransformation [15]: Compound NOT metabolized | Bacterial Biotransformation [16]: Compound NOT metabolized | Bacterial Biotransformation [17]: Compound NOT metabolized | Bacterial Biotransformation [18]: Compound NOT metabolized | Bacterial Biotransformation [19]: Compound NOT metabolized

OCCN1CCN(CCCN2c3ccccc3Sc3ccc(C(F)(F)F)cc32)CC1 [FLUPHENAZINE]
Bacterial Biotransformation [1]: Compound NOT metabolized | Bacterial Biotransformation [2]: Compound metabolized | Bacterial Biotransformation [4]: Compound NOT metabolized | Bacterial Biotransformation [5]: Compound NOT metabolized | Bacterial Biotransformation [6]: Compound metabolized | Bacterial Biotransformation [20]: Compound metabolized | Bacterial Biotransformation [7]: Compound metabolized | Bacterial Biotransformation [8]: Compound metabolized | Bacterial Biotransformation [9]: Compound metabolized | Bacterial Biotransformation [10]: Compound metabolized | Bacterial Biotransformation [11]: Compound metabolized | Bacterial Biotransformation [12]: Compound metabolized | Bacterial Biotransformation [13]: Compound metabolized | Bacterial Biotransformation [14]: Compound metabolized | Bacterial Biotransformation [15]: Compound NOT metabolized | Bacterial Biotransformation [16]: Compound metabolized | Bacterial Biotransformation [17]: Compound metabolized | Bacterial Biotransformation [18]: Compound metabolized | Bacterial Biotransformation [19]: Compound metabolized

c1ccc([C@H]2CN3CCSC3=N2)cc1 [LEVAMISOLE]
Bacterial Biotransformation [1]: Compound NOT metabolized | Bacterial Biotransformation [3]: Compound NOT metabolized | Bacterial Biotransformation [4]: Compound metabolized | Bacterial Biotransformation [5]: Compound NOT metabolized | Bacterial Biotransformation [6]: Compound NOT metabolized | Bacterial Biotransformation [9]: Compound metabolized | Bacterial Biotransformation [10]: Compound metabolized | Bacterial Biotransformation [11]: Compound metabolized | Bacterial Biotransformation [12]: Compound NOT metabolized | Bacterial Biotransformation [14]: Compound metabolized | Bacterial Biotransformation [15]: Compound metabolized | Bacterial Biotransformation [16]: Compound metabolized | Bacterial Biotransformation [17]: Compound metabolized | Bacterial Biotransformation [18]: Compound metabolized | Bacterial Biotransformation [19]: Compound metabolized

C#C[C@]1(O)CC[C@H]2[C@@H]3CCC4=CC(=O)CC[C@@H]4[C@H]3CC[C@@]21CC [LEVONORGESTREL]
Bacterial Biotransformation [1]: Compound metabolized | Bacterial Biotransformation [3]: Compound metabolized | Bacterial Biotransformation [4]: Compound metabolized | Bacterial Biotransformation [5]: Compound metabolized | Bacterial Biotransformation [9]: Compound metabolized | Bacterial Biotransformation [10]: Compound metabolized | Bacterial Biotransformation [12]: Compound metabolized | Bacterial Biotransformation [14]: Compound NOT metabolized | Bacterial Biotransformation [15]: Compound metabolized | Bacterial Biotransformation [16]: Compound metabolized | Bacterial Biotransformation [17]: Compound metabolized | Bacterial Biotransformation [18]: Compound metabolized | Bacterial Biotransformation [19]: Compound metabolized

O=C1CC[C@@H](C(=O)N2CSC[C@H]2C(=O)O)N1 [PIDOTIMOD] ([pGlu]-[Thz]-OH)
Bacterial Biotransformation [1]: Compound NOT metabolized | Bacterial Biotransformation [2]: Compound metabolized | Bacterial Biotransformation [3]: Compound NOT metabolized | Bacterial Biotransformation [4]: Compound metabolized | Bacterial Biotransformation [5]: Compound NOT metabolized | Bacterial Biotransformation [6]: Compound NOT metabolized | Bacterial Biotransformation [20]: Compound metabolized | Bacterial Biotransformation [8]: Compound NOT metabolized | Bacterial Biotransformation [9]: Compound NOT metabolized | Bacterial Biotransformation [11]: Compound NOT metabolized | Bacterial Biotransformation [13]: Compound NOT metabolized | Bacterial Biotransformation [14]: Compound NOT metabolized | Bacterial Biotransformation [16]: Compound metabolized | Bacterial Biotransformation [17]: Compound NOT metabolized | Bacterial Biotransformation [18]: Compound NOT metabolized | Bacterial Biotransformation [19]: Compound NOT metabolized
